Experimental data as given in article PMC5895059, “Scaffold hopping from (5-hydroxymethyl) isophthalates to multisubstituted pyrimidines diminishes binding affinity to the C1 domain of protein kinase C” (PLoS ONE, 2018).
Values joined by “and” are separate entries in the source; they are usually repeats but may differ in a detail not shown here. Equal values may be shown once.

Columns and labels:
[1] = molecular target: T1, PKCα (Homo sapiens, UniProt P17252); settings: read-out: Ki PKCα; cited from earlier work
[2] = molecular target: T1, PKCα; assay: [3H]PDBu displacement, 96-well plate filtration binding assay; settings: for Displacement assay raw data (CCPM): single replicate wells; for Residual [^3H]PDBu binding to PKCα (% of control): 20 μM compound concentration, mean + SEM, n = 2–8; for Displacement of [^3H]PDBu from PKCα (in words): concentration range of 0.2–30 μM

| Residual [^3H]PDBu binding to PKCα (% of control) [2] | Displacement of [^3H]PDBu from PKCα (in words) [2] | Compound | Ki [1] | Displacement assay raw data (CCPM) ([2]; 0,2 µM test substance) | Displacement assay raw data (CCPM) ([2]; 1 µM test substance) | Displacement assay raw data (CCPM) ([2]; 4 µM test substance) | Displacement assay raw data (CCPM) ([2]; 10 µM test substance) | Displacement assay raw data (CCPM) ([2]; 20 µM test substance) | Displacement assay raw data (CCPM) ([2]; 30 µM test substance) |
| --- | --- | --- | --- | --- | --- | --- | --- | --- | --- |
| – | – | CC1=CC[C@H](C)C(C)(C)[C@@H]1/C=C/C(C)=C/CC[C@@]1(CO)[C@H](CCCO)/C(=C(/C)C=O)CC[C@]1(C)O [Iripallidal, iripallidal] | 75.6 nM | – | – | – | – | – | – |
| – | – | CC(C)C1C(=O)NC(CO)Cc2c[nH]c3cccc(c23)N1C (centres unmarked) [Indolactam-V, indolactam-V] | 11 nM | – | – | – | – | – | – |
| – | – | C/C=C(/C)C(=O)O[C@H]1C(C)=C[C@]23C(=O)[C@H](C=C(CO)[C@@H](O)[C@]12O)[C@H]1[C@@H](C[C@H]3C)C1(C)C [Ingenol 3-angelate, ingenol 3-angelate] | 0.1 nM | – | – | – | – | – | – |
| 91.4 ± 2.3 % of control | – | CCCCC(CC)OC(=O)c1nc(CO)nc(OC(CC)CCCC)c1C (centres unmarked) [Compound 2e, Heptan-3-yl 6-(heptan-3-yloxy)-2-(hydroxymethyl)-5-methylpyrimidine-4-carboxylate] | – | 13386 CCPM and 12773 CCPM and 11586 CCPM and 9937 CCPM and 11273 CCPM and 11368 CCPM | 12486 CCPM and 13520 CCPM and 13561 CCPM and 10438 CCPM and 10771 CCPM and 10331 CCPM | 13244 CCPM and 12192 CCPM and 13129 CCPM and 11362 CCPM and 12373 CCPM and 12221 CCPM | 12416 CCPM and 12269 CCPM and 12041 CCPM and 10898 CCPM and 11193 CCPM and 10978 CCPM | 11475 CCPM and 10474 CCPM and 10581 CCPM and 9805 CCPM and 9920 CCPM and 10092 CCPM | 11584 CCPM and 10772 CCPM and 11119 CCPM and 8897 CCPM and 9568 CCPM and 9434 CCPM |
| 87.2 ± 3.1 % of control | strongest concentration dependence | CCCCC(CC)Oc1nc(CO)nc(C(=O)OCc2cccc(C(F)(F)F)c2)c1C (centres unmarked) [Compound 2l, 3-(trifluoromethyl)benzyl 6-(heptan-3-yloxy)-2-(hydroxymethyl)-5-methylpyrimidine-4-carboxylate] | – | 11787 CCPM and 12303 CCPM and 12556 CCPM and 11461 CCPM and 11853 CCPM and 10747 CCPM | 11810 CCPM and 12833 CCPM and 12739 CCPM and 9497 CCPM and 9690 CCPM and 11213 CCPM | 12017 CCPM and 12127 CCPM and 12580 CCPM and 10346 CCPM and 11241 CCPM and 10654 CCPM | 10371 CCPM and 11662 CCPM and 12071 CCPM and 9995 CCPM and 8831 CCPM and 10464 CCPM | 9853 CCPM and 10455 CCPM and 11136 CCPM and 9012 CCPM and 9579 CCPM and 9472 CCPM | 9538 CCPM and 8697 CCPM and 9196 CCPM and 7998 CCPM and 9967 CCPM and 8566 CCPM |
| – | – | CCCCCCCCCCc1ccc2c(c1)N[C@@H](C(C)C)C(=O)N[C@H](CO)C2 [9-Decyl-benzolactam-V8, 9-decyl-benzolactam-V8] | 3.8 nM | – | – | – | – | – | – |
| 98.2 ± 1.6 % of control | – | CCCCC(CC)OC(=O)c1cc(C(=O)OCC)nc(CO)n1 (centres unmarked) [Compound 1d, 4-ethyl 6-(heptan-3-yl) 2-(hydroxymethyl)pyrimidine-4,6-dicarboxylate] | – | 5785 CCPM and 11839 CCPM and 10949 CCPM and 11567 CCPM and 6093 CCPM and 6313 CCPM | 5593 CCPM and 11705 CCPM and 12203 CCPM and 11600 CCPM and 5961 CCPM | 5222 CCPM and 11573 CCPM and 11709 CCPM and 11091 CCPM and 5210 CCPM and 6475 CCPM | 5570 CCPM and 12001 CCPM and 12205 CCPM and 11408 CCPM and 5899 CCPM and 5461 CCPM | 5518 CCPM and 11664 CCPM and 11365 CCPM and 11482 CCPM and 5575 CCPM and 5277 CCPM | 5500 CCPM and 12337 CCPM and 11581 CCPM and 11144 CCPM and 5029 CCPM and 5100 CCPM |
| 87.2 ± 6.0 % of control | – | CCCCCCCOc1nc(CO)nc(C(=O)OCc2cccc(C(F)(F)F)c2)c1C [Compound 2j, 3-(trifluoromethyl)benzyl 6-(heptyloxy)-2-(hydroxymethyl)-5-methylpyrimidine-4-carboxylate] | – | 5070 CCPM and 6403 CCPM and 6171 CCPM and 8628 CCPM and 8277 CCPM and 7942 CCPM | 5379 CCPM and 6351 CCPM and 6353 CCPM and 8453 CCPM and 7986 CCPM and 7710 CCPM | 5347 CCPM and 4876 CCPM and 6039 CCPM and 8146 CCPM and 8038 CCPM and 8545 CCPM | 4978 CCPM and 4910 CCPM and 4651 CCPM and 7817 CCPM and 7871 CCPM and 7636 CCPM | 5492 CCPM and 5042 CCPM and 4393 CCPM and 7145 CCPM and 7596 CCPM and 7314 CCPM | 4511 CCPM and 5233 CCPM and 4215 CCPM and 6957 CCPM and 7148 CCPM and 7222 CCPM |
| – | – | CC(=O)O[C@@]12[C@H](O)[C@@H](C)[C@@]3(O)[C@@H](C=C(CO)C[C@]4(O)C(=O)C(C)=C[C@@H]34)[C@@H]1C2(C)C [Phorbol 13-acetate, phorbol 13-acetate] | 120000 nM | – | – | – | – | – | – |
| 111.8 ± 6.5 % of control | could not displace | O=C(OCc1cccc(C(F)(F)F)c1)c1cc(C(=O)OCc2cccc(C(F)(F)F)c2)nc(CO)n1 [Compound 1g, Bis[3-(trifluoromethyl)benzyl] 2-(hydroxymethyl)pyrimidine-4,6-dicarboxylate] | – | 5983 CCPM and 11409 CCPM and 12180 CCPM and 12791 CCPM and 7834 CCPM and 6792 CCPM | 5197 CCPM and 12142 CCPM and 12212 CCPM and 11135 CCPM and 5159 CCPM and 5208 CCPM | 7023 CCPM and 11774 CCPM and 11597 CCPM and 12149 CCPM and 8091 CCPM and 7399 CCPM | 6399 CCPM and 11639 CCPM and 11927 CCPM and 11310 CCPM and 6008 CCPM and 6638 CCPM | 7300 CCPM and 11874 CCPM and 12244 CCPM and 12079 CCPM and 8018 CCPM and 7727 CCPM | 6005 CCPM and 11016 CCPM and 11803 CCPM and 12038 CCPM and 5730 CCPM and 6258 CCPM |
| 104.8 ± 5.3 % of control | – | CCCCCCCCOC(=O)c1cc(C(=O)OCCCCCCCC)nc(CO)n1 [Compound 1b, Dioctyl 2-(hydroxymethyl)pyrimidine-4,6-dicarboxylate] | – | 7480 CCPM and 1215 CCPM and 1126 CCPM and 1107 CCPM and 7956 CCPM and 7520 CCPM | 7638 CCPM and 1213 CCPM and 1392 CCPM and 1115 CCPM and 7562 CCPM and 7593 CCPM | 7531 CCPM and 1201 CCPM and 1408 CCPM and 1101 CCPM and 7673 CCPM and 7303 CCPM | 7793 CCPM and 1222 CCPM and 1214 CCPM and 1251 CCPM and 7474 CCPM and 6957 CCPM | 8435 CCPM and 1194 CCPM and 1172 CCPM and 1054 CCPM and 8891 CCPM and 9450 CCPM | 6677 CCPM and 1407 CCPM and 1081 CCPM and 1070 CCPM and 6691 CCPM and 6936 CCPM |
| 110.7 ± 5.5 % of control | – | CCCCC(CC)Oc1nc(CO)nc(C(=O)OC)c1C (centres unmarked) [Compound 2k, Methyl 6-(heptan-3-yloxy)-2-(hydroxymethyl)-5-methylpyrimidine-4-carboxylate] | – | 13386 CCPM and 11844 CCPM and 11381 CCPM and 5560 CCPM and 5090 CCPM and 5580 CCPM | 12313 CCPM and 12292 CCPM and 11097 CCPM and 5334 CCPM and 5340 CCPM and 5211 CCPM | 12488 CCPM and 11770 CCPM and 11977 CCPM and 5381 CCPM and 5013 CCPM and 5436 CCPM | 12602 CCPM and 12313 CCPM and 12064 CCPM and 5438 CCPM and 4595 CCPM and 5996 CCPM | 12386 CCPM and 11227 CCPM and 11279 CCPM and 6057 CCPM and 6588 CCPM and 6792 CCPM | 11742 CCPM and 11565 CCPM and 11279 CCPM and 5575 CCPM and 6135 CCPM and 5991 CCPM |
| 103.7 ± 5.3 % of control | – | CCCCCCCCCCCOC(=O)c1cc(C(=O)OCCCCCCCCCCC)nc(CO)n1 [Compound 1c, Diundecyl 2-(hydroxymethyl)pyrimidine-4,6-dicarboxylate] | – | 8135 CCPM and 9009 CCPM and 9090 CCPM | 7374 CCPM and 8410 CCPM and 8950 CCPM | 8779 CCPM and 7927 CCPM and 8172 CCPM | 7968 CCPM and 8364 CCPM and 8092 CCPM | 7670 CCPM and 9322 CCPM and 8225 CCPM | 7089 CCPM and 8399 CCPM and 9539 CCPM |
| 89.7 ± 7.1 % of control | – | CCCC(CCC)COC(=O)c1nc(CO)nc(OCC(CCC)CCC)c1C [Compound 2d, 2-propylpentyl 2-(hydroxymethyl)-5-methyl-6-[(2-propylpentyl)oxy]pyrimidine-4-carboxylate] | – | 9740 CCPM and 9459 CCPM and 9651 CCPM and 5569 CCPM and 5686 CCPM and 5559 CCPM | 7644 CCPM and 9362 CCPM and 9109 CCPM and 5694 CCPM and 5798 CCPM and 6238 CCPM | 7518 CCPM and 9016 CCPM and 8738 CCPM and 4914 CCPM and 5158 CCPM and 5369 CCPM | 7586 CCPM and 7877 CCPM and 7985 CCPM and 4832 CCPM and 5595 CCPM and 4913 CCPM | 7408 CCPM and 8501 CCPM and 8368 CCPM and 4542 CCPM and 5847 CCPM and 5492 CCPM | 8520 CCPM and 7381 CCPM and 8758 CCPM and 5782 CCPM and 4556 CCPM and 4977 CCPM |
| 86.8 ± 7.8 % of control | – | CCCCC(CC)OC(=O)c1nc(CO)nc(OCc2cccc(C(F)(F)F)c2)c1C (centres unmarked) [Compound 2h, Heptan-3-yl 2-(hydroxymethyl)-5-methyl-6-[[3-(trifluoromethyl)benzyl]oxy]pyrimidine-4-carboxylate] | – | 5892 CCPM and 5535 CCPM and 6214 CCPM and 5732 CCPM and 5572 CCPM and 5002 CCPM | 5789 CCPM and 5065 CCPM and 5775 CCPM and 5836 CCPM and 5313 CCPM and 4792 CCPM | 5908 CCPM and 5351 CCPM and 5505 CCPM and 5457 CCPM and 5305 CCPM and 4736 CCPM | 5951 CCPM and 5634 CCPM and 5541 CCPM and 4751 CCPM and 4877 CCPM and 4485 CCPM | 5509 CCPM and 4316 CCPM and 5047 CCPM and 4061 CCPM and 4136 CCPM and 4187 CCPM | 5249 CCPM and 4747 CCPM and 5046 CCPM and 3715 CCPM and 4141 CCPM and 3683 CCPM |
